Source: patent US7951232B2, “Surface coating compositions and methods” (Elevance Renewable Sciences, Inc., priority 2006, dated 2011)
Read-outs that look alike come from different tables or passages of the source.

Legend:
Type in all cases: cell-based
[1] = system: Cladosporium cladosporiodes ATCC 16022; assay: Dry film preservative test, growth on PDA agar surface
Experimental: (§1) The efficacy of 9-decenoic acid and the methyl ester of 9-decenoic acid as a dry film preservative was determined through the incubation of Trichoderma virens ATCC 9645, Cladosporium cladosporiodes ATCC 16022 and Aureobasidium pullulans ATCC 12536 in the presence of varying concentrations of 9-decenoic acid or the methyl ester of 9-decenoic acid on an agar surface.
(§2) Fungal spores were hydrated overnight in 0.1% Tween 80 and then plated on Potato Dextrose Agar (PDA) and incubated at 25-30° C. for 6 days. The spores were washed from the surface with 5 mls of 0.1% Tween 80 and enumerated.
(§3) PDA plates with prepared according to the manufactures instructions through sterilization. The agar was tempered to approximately 50° C. and filter sterilized 9-decenoic acid was added to achieve concentrations of 0.1, 0.5 and 1.0% in the agar. Additionally, one concentration of the methyl ester of 9-decenoic acid (0.5%) was also prepared. The agar was thoroughly mixed and poured into sterile petri plates and allowed to solidify.
(§4) The agar plates were inoculated with the spore solution to achieve 10^2 spores/plate. The plates were incubated at 25-30° C. in Ziploc bags with a wet paper towel to keep the moisture level high. The plates were examined for growth after 4, 7, 16, 24 and 31 days. The percent coverage of growth on the agar surface was recorded at each sample point.

[2] = system: Trichoderma virens ATCC 9645; assay: as above
Experimental: as §1, §2, §3, §4

[3] = system: Aureobasidium pullulans ATCC 12536; assay: as above
Experimental: as §1, §2, §3, §4

[4] = system: Penecillium verrucosum, ATCC 18381; assay: Preservative effectiveness, USP <51>
Experimental: The effectiveness of 9-decenoic acid on Aspergillus and Penecillium which occasionally result in in-can spoilage of paint was determined using the protocol on preservative effectiveness found in the United States Pharmacopeia (USP), 25th Edition, 2002, USP <51>.
Stock cultures of the fungi Aspergillus flavus, ATCC 9170 and Penecillium verrucosum, ATCC 18381 were cultured onto Sabouraud Dextrose Agar (SDA) and incubated at 25-30° C. for at least 1 week. The spores were washed form the agar surface with sterile saline, filtered through sterile glass wool, enumerated and stored under refrigeration for no longer than thirty days. On the day of the test, the suspension was diluted to approximately 10^8 CFU/ml.
The 9-decenoic acid was diluted in the same manner as previously described to achieve, 0.25, 0.125, 0.0625, 0.03, 0.015, 0.0078 and 0.0039% and dispensed in 20 ml aliquots in sterile test tubes. For each concentration tested, a 0.1 ml aliquot of each inoculum was added to a final concentration of 10^5 to 10^6 CFU/ml. The tubes were incubated at room temperature and sampled on days 0, 1, 2, 4, 7, 14, 21 and 28.
At each sample point, 1.0 ml aliquots were withdrawn, serially diluted and plated in triplicate on SDA. The plates were incubated at 25-30° C. for 3-7 days. The colonies were counted and the average CFU/ml was calculated. Controls for purity, viability and sterility were performed as described previously.
According to the US Pharmacopoeia, a test compound is an effective preservative if the concentrations of viable fungi remain at or below the initial concentrations during the first fourteen days and after 28 days. According to this definition, 9-decenoic acid is an effective preservative against Aspergillus flavus and Penecillium verrucosum at concentrations as low at 0.078%. […] For A. flavus, 9-decenoic acid was fungicidal at 0.015% after 21 days and at day 0 at 0.03%.

C=CCCCCCCCC(=O)O [9-decenoic acid]
Percentage coverage of agar surface ([1]; 0.1% in PDA agar, 4 days): 0% | Percentage coverage of agar surface ([1]; 0.1% in PDA agar, 7 days): 0% | Percentage coverage of agar surface ([1]; 0.1% in PDA agar, 16 days): 0% | Percentage coverage of agar surface ([1]; 0.1% in PDA agar, 24 days): 0% | Percentage coverage of agar surface ([1]; 0.1% in PDA agar, 31 days): 0% | Percentage coverage of agar surface ([1]; 0.5% in PDA agar, 4 days): 0% | Percentage coverage of agar surface ([1]; 0.5% in PDA agar, 7 days): 0% | Percentage coverage of agar surface ([1]; 0.5% in PDA agar, 16 days): 0% | Percentage coverage of agar surface ([1]; 0.5% in PDA agar, 24 days): 0% | Percentage coverage of agar surface ([1]; 0.5% in PDA agar, 31 days): 0% | Percentage coverage of agar surface ([1]; 1.0% in PDA agar, 4 days): 0% | Percentage coverage of agar surface ([1]; 1.0% in PDA agar, 7 days): 0% | Percentage coverage of agar surface ([1]; 1.0% in PDA agar, 16 days): 0% | Percentage coverage of agar surface ([1]; 1.0% in PDA agar, 24 days): 0% | Percentage coverage of agar surface ([1]; 1.0% in PDA agar, 31 days): 0% | effectiveness as dry film preservative ([1]; at 0.1% for up to 31 days): effective | Percentage coverage of agar surface ([2]; 0.1% in PDA agar, 4 days): 0% | Percentage coverage of agar surface ([2]; 0.1% in PDA agar, 7 days): 0% | Percentage coverage of agar surface ([2]; 0.1% in PDA agar, 16 days): 0% | Percentage coverage of agar surface ([2]; 0.1% in PDA agar, 24 days): 0% | Percentage coverage of agar surface ([2]; 0.1% in PDA agar, 31 days): 0% | Percentage coverage of agar surface ([2]; 0.5% in PDA agar, 4 days): 0% | Percentage coverage of agar surface ([2]; 0.5% in PDA agar, 7 days): 0% | Percentage coverage of agar surface ([2]; 0.5% in PDA agar, 16 days): 0% | Percentage coverage of agar surface ([2]; 0.5% in PDA agar, 24 days): 0% | Percentage coverage of agar surface ([2]; 0.5% in PDA agar, 31 days): 0% | Percentage coverage of agar surface ([2]; 1.0% in PDA agar, 4 days): 0% | Percentage coverage of agar surface ([2]; 1.0% in PDA agar, 7 days): 0% | Percentage coverage of agar surface ([2]; 1.0% in PDA agar, 16 days): 0% | Percentage coverage of agar surface ([2]; 1.0% in PDA agar, 24 days): 0% | Percentage coverage of agar surface ([2]; 1.0% in PDA agar, 31 days): 0% | effectiveness as dry film preservative ([2]; at 0.1% for up to 31 days): effective | Percentage coverage of agar surface ([3]; 0.1% in PDA agar, 4 days): 0% | Percentage coverage of agar surface ([3]; 0.1% in PDA agar, 7 days): 0% | Percentage coverage of agar surface ([3]; 0.1% in PDA agar, 16 days): 0% | Percentage coverage of agar surface ([3]; 0.1% in PDA agar, 24 days): 0% | Percentage coverage of agar surface ([3]; 0.1% in PDA agar, 31 days): 0% | Percentage coverage of agar surface ([3]; 0.5% in PDA agar, 4 days): 0% | Percentage coverage of agar surface ([3]; 0.5% in PDA agar, 7 days): 0% | Percentage coverage of agar surface ([3]; 0.5% in PDA agar, 16 days): 0% | Percentage coverage of agar surface ([3]; 0.5% in PDA agar, 24 days): 0% | Percentage coverage of agar surface ([3]; 0.5% in PDA agar, 31 days): 0% | Percentage coverage of agar surface ([3]; 1.0% in PDA agar, 4 days): 0% | Percentage coverage of agar surface ([3]; 1.0% in PDA agar, 7 days): 0% | Percentage coverage of agar surface ([3]; 1.0% in PDA agar, 16 days): 0% | Percentage coverage of agar surface ([3]; 1.0% in PDA agar, 24 days): 0% | Percentage coverage of agar surface ([3]; 1.0% in PDA agar, 31 days): 0% | effectiveness as dry film preservative ([3]; at 0.1% for up to 31 days): effective | time after which fungicidal [4]: 2 days | Log reduction of organisms after exposure ([4]; 0.0078%, exposure 0 days): 0 log | Log reduction of organisms after exposure ([4]; 0.0078%, exposure 1 day): 0.1 log | Log reduction of organisms after exposure ([4]; 0.0078%, exposure 2 days): 0.8 log | Log reduction of organisms after exposure ([4]; 0.0078%, exposure 4 days): 0.8 log | Log reduction of organisms after exposure ([4]; 0.0078%, exposure 7 days): 0.8 log | Log reduction of organisms after exposure ([4]; 0.0078%, exposure 14 days): 0.8 log | Log reduction of organisms after exposure ([4]; 0.0078%, exposure 21 days): 1.8 log | Log reduction of organisms after exposure ([4]; 0.0078%, exposure 28 days): 1.9 log | Log reduction of organisms after exposure ([4]; 0.015%, exposure 0 days): 0.1 log | Log reduction of organisms after exposure ([4]; 0.015%, exposure 1 day): 3.0 log | Log reduction of organisms after exposure ([4]; 0.015%, exposure 2 days): 5.1 log | Log reduction of organisms after exposure ([4]; 0.015%, exposure 4 days): 5.1 log | Log reduction of organisms after exposure ([4]; 0.015%, exposure 7 days): 5.1 log | Log reduction of organisms after exposure ([4]; 0.015%, exposure 14 days): 5.1 log | Log reduction of organisms after exposure ([4]; 0.015%, exposure 21 days): 5.1 log | Log reduction of organisms after exposure ([4]; 0.015%, exposure 28 days): 5.1 log | Log reduction of organisms after exposure ([4]; 0.03%, exposure 0 days): 3.4 log | Log reduction of organisms after exposure ([4]; 0.03%, exposure 1 day): 5.1 log | Log reduction of organisms after exposure ([4]; 0.03%, exposure 2 days): 5.1 log | Log reduction of organisms after exposure ([4]; 0.03%, exposure 4 days): 5.1 log | Log reduction of organisms after exposure ([4]; 0.03%, exposure 7 days): 5.1 log | Log reduction of organisms after exposure ([4]; 0.03%, exposure 14 days): 5.1 log | Log reduction of organisms after exposure ([4]; 0.03%, exposure 21 days): 5.1 log | Log reduction of organisms after exposure ([4]; 0.03%, exposure 28 days): 5.1 log | Log reduction of organisms after exposure ([4]; 0.0625%, exposure 0 days): 4.3 log | Log reduction of organisms after exposure ([4]; 0.0625%, exposure 1 day): 5.1 log | Log reduction of organisms after exposure ([4]; 0.0625%, exposure 2 days): 5.1 log | Log reduction of organisms after exposure ([4]; 0.0625%, exposure 4 days): 5.1 log | Log reduction of organisms after exposure ([4]; 0.0625%, exposure 7 days): 5.1 log | Log reduction of organisms after exposure ([4]; 0.0625%, exposure 14 days): 5.1 log | Log reduction of organisms after exposure ([4]; 0.0625%, exposure 21 days): 5.1 log | Log reduction of organisms after exposure ([4]; 0.0625%, exposure 28 days): 5.1 log | time after which fungicidal ([4]; at 0.03%): 1 days
